Measurements published in patent US10869931B2, “Polyethylene glycol-modified angiogenesis inhibitor HM-1 and application thereof” (NANJING ANJI BIOLOGICAL TECHNOLOGY CO.,LTD, priority 2016, dated 2020).
Marks after values point to notes of the source that are not given here. Where no end group is shown, it is not given here.

Legend:
[1] = tested on: human retinal vascular endothelial cells (HRCEC); experiment: MTT proliferation of human retinal vascular endothelial cells; assay type: cell-based; details: 48 h; for Inhibition rate: HRCEC proliferation; for A570 nm-A630 nm: HRCEC
Method: The activity of the angiogenesis inhibitor polypeptide to inhibit proliferation of human retinal vascular endothelial cells was examined by MTT assay. HRCEC cells were cultured in a 37° C., 5% CO2 incubator to a density of 90% or more, and collected by trypsinization. The cells were resuspended in the culture medium and counted under a microscope to adjust the cell concentration to 3.0×10^4 cells/mL. The cell suspension was inoculated into a 96-well plate at 100 μL per well and cultured overnight at 37° C. in a 5% CO2 incubator. After the cells were completely adhered, the angiogenesis inhibitor polypeptide was added as the administration group, and Avastin was used as the positive control group, and the culture media without any drug was used as a blank control group, and the culture media were diluted to each predetermined concentration. Each dilution was separately added to a 96-well plate at 100 μL per well and incubated for 48 h at 37° C. in a 5% CO2 incubator. 20 μL of 5 mg/mL MTT was added to each well of a 96-well plate and incubation was continued for 4 h. The medium was aspirated and dissolved in 100 μL of DMSO per well. […] The formula is as follows: PI (%)=1−administration group/negative group
The test was repeated 3 times independently. The results obtained by the test were expressed as mean±SD, and a statistical T test was performed. *P<0.05 was a significant difference, and **P<0.01 was a very significant difference.

[2] = tested on: Cervical cancer tumor cells; experiment: MTT proliferation inhibition, cervical cancer cells; assay type: cell-based, human; parameters: concentration or dose not given beside the values; details: 48 h
Method: (§1) The activity of mPEG-HM-1 to inhibit the growth of various tumor cells was examined by MTT assay. The tumor cells were cultured to a concentration of 90% or more in a 37° C., 5% CO2 incubator and collected by trypsinization. The cells were resuspended in the culture medium and counted under a microscope to adjust the cell concentration to 2×10^4 cells/mL, the cell suspension was inoculated into a 96-well plate at 100 μL/well and incubated overnight at 37° C. in a 5% CO2 incubator. mPEG-HM-1 was diluted with the culture solution to each predetermined concentration. Docetaxel is diluted to the final concentration with the culture medium. After the cells were fully attached, each dilution was added to a 96-well plate (100 μL/well). The mPEG-HM-1 dilution was added as a drug-administered group, and docetaxel was added as a positive control group, and a culture solution without any drug was used as a negative control group. Incubate for 48 h at 37° C. in a 5% CO2 incubator. 5 mg/mL of MTT was added to a 96-well plate at 20 μL per well, and incubation was continued for 4 hours. The medium was aspirated, dissolved in 150 μL of DMSO per well, and gently mixed by shaking for 10 min. The absorbance was measured at a measurement wavelength of 570 nm and a reference wavelength of 630 nm using a microplate reader, and the rate of growth inhibition (proliferation inhibition, PI) was calculated. The formula is as follows: PI (%)=1−administration group/negative group
(§2) The test was repeated 3 times independently, and the results obtained by the test were expressed as mean±SD, and the test results are shown in Table 15 to Table 18.

[3] = tested on: corneal neovascularization in BALB/c mice; experiment: Alkali-burn corneal neovascularization in BALB/c mice (CD31 microvessel density); assay type: in vivo, mouse; details: for Inhibition rate: corneal microvessel density vs control; for Inhibition rate / MVD: day 14 after alkali burn, intravitreal once a day for 1 week; for MVD: microvessel density (CD31) of cornea
From the text: (1) Preparation of corneal neovascularization model induced by alkali burn in BALB/c mice: mice were randomly grouped and labeled as mPEG-HM-1 experimental group and control group, 5 […] in each group, respectively, was given mPEG-HM-1 and saline by Intravitreal injection after alkali burn, once a day for 1 week. The inflammatory reaction and neovascularization of the cornea were observed under slit lamp microscope at 1 d, 7 d, and 14 d after alkali burn. On the 14th day after alkali burn, the corneal neovascularization was recorded under the slit lamp microscope in the anterior segment of the eye. All the mice were euthanized by cervical dislocation and the eyeballs were removed, washed with saline to rid of blood, and was fixed in 4% paraformaldehyde for 1.5 h, dehydrated in PBS containing 30% sucrose overnight, embedded in OCT frozen section embedding agent, stored in −80° C. refrigerator, frozen section 8 μm, and underwent immunocytochemical detection of CD31 expression. (2) Quantitative measurement of corneal tissue microvessel density: Microvessel density (MVD) is an indicator for evaluating angiogenesis. Vascular endothelial cells were labeled with anti-CD31 antibody by immunohistochemistry, and the number of microvessels per unit area was counted to measure the degree of neovascularization. Standards for counting microvessels: Microscopically, the endothelial cells or cell clusters that are clearly demarcated from adjacent tissues in the corneal tissue and stained brown or brown are counted in the neovascularization. The number of new blood vessels in the whole section was counted under a 10×20 microscope. After the corneal tissue was photographed, the entire corneal tissue area was calculated by image processing software Image J, and the neovascular density of the whole section was determined. The test was repeated 3 times independently. The results obtained by the test were expressed as mean±SD, and a statistical T test was performed. *P<0.05 was a significant difference, and **P<0.01 was a very significant difference.

[4] = tested on: carrageenan-induced toe swelling in SD rats; experiment: Carrageenan-induced acute toe swelling in rats; assay type: in vivo, rat; parameters: Swelling: unit not given here
Method: SD rats were divided into blank model group, dexamethasone-positive group (5 mg/kg) and mPEG-HM-1 test group. The drug was administered once a day, and the model group was given the same volume of normal saline for 3 days and fed normally. At the first hour after the last administration, 0.1 mL of 1% carrageenan was injected subcutaneously into the right hind paw of the rats to induce inflammation. The volume of the foot was measured at 1 h, 3 h, 5 h, and 7 h after inflammation. The degree of swelling of the foot was calculated according to the following formula: the degree of swelling of the foot (mL)=the volume of the foot after inflammation−the volume before inflammation. Record the number of milliliters of spilled liquid (method: use the ballpoint pen to circle as the measurement mark at the protruding point of the right joint, and then put the right hind foot of each mouse into the volume measuring device, so that the hind limb is exposed outside the cylinder, and the depth of the immersion was determined by coinciding the circle with the liquid surface. After the foot enters the liquid, the liquid level rises, and the volume of the overflow liquid is the volume of the right hind foot of the rat, and the normal volume of the right hind foot of each mouse is sequentially determined).

[5] = tested on: Bladder Cancer tumor cells; experiment: MTT proliferation inhibition, bladder cancer cells; assay type: cell-based, human; parameters: concentration or dose not given beside the values; details: 48 h
Method: as §1, §2

[6] = 20 mg/kg once a day for 3 days, 1 h after carrageenan
[7] = 20 mg/kg once a day for 3 days, 3 h after carrageenan
[8] = 20 mg/kg once a day for 3 days, 5 h after carrageenan
[9] = 20 mg/kg once a day for 3 days, 7 h after carrageenan
[10] = 40 mg/kg once a day for 3 days, 1 h after carrageenan
[11] = 40 mg/kg once a day for 3 days, 3 h after carrageenan
[12] = 40 mg/kg once a day for 3 days, 5 h after carrageenan
[13] = 40 mg/kg once a day for 3 days, 7 h after carrageenan

With “mPEG2-NHS5k-Arg-Gly-Ala-Asp-Arg-Ala-Gly-Gly-Gly-Gly-Arg-Gly-Asp ({mPEG2‑NHS 5 kDa}-RGADRAGGGGRGD) [mPEG2-NHS5k-HM-1]” the Inhibition rate ([1]; 20 μg/mL) was 40.94%*, the “A570 nm-A630 nm” value ([1]; 20 μg/mL, MTT) was 0.7807 ± 0.09103 and the Inhibition rate ([1]; 40 μg/mL) was 50.65%**. For the same substance, the “A570 nm-A630 nm” value ([1]; 40 μg/mL, MTT) was 0.6523 ± 0.08688, the Inhibition rate ([1]; 60 μg/mL) was 61.08%* and the “A570 nm-A630 nm” value ([1]; 60 μg/mL, MTT) was 0.5144 ± 0.08531. The “rate of growth inhibition” value [2] was 49.15 ± 14.23%, the Inhibition rate [3] was 40.13% and the MVD [3] was 39.95 ± 3.985*. For the same substance, the Swelling ([4]; 10 mg/kg once a day for 3 days, 1 h after carrageenan) was 0.25 ± 0.13, the Swelling ([4]; 10 mg/kg once a day for 3 days, 3 h after carrageenan) was 0.36 ± 0.12 and the Swelling ([4]; 10 mg/kg once a day for 3 days, 5 h after carrageenan) was 0.43 ± 0.17. The Swelling ([4]; 10 mg/kg once a day for 3 days, 7 h after carrageenan) was 0.31 ± 0.15, the Swelling [4, 6] was 0.22 ± 0.11 and the Swelling [4, 7] was 0.32 ± 0.21. The Swelling [4, 8] was 0.36 ± 0.12, the Swelling [4, 9] was 0.32 ± 0.16 and the “rate of growth inhibition” value [5] was 38.64 ± 12.72%.

For “mPEG2-NHS10k-Arg-Gly-Ala-Asp-Arg-Ala-Gly-Gly-Gly-Gly-Arg-Gly-Asp ({mPEG2‑NHS 10 kDa}-RGADRAGGGGRGD) [mPEG2-NHS10k-HM-1]”, the Inhibition rate ([1]; 40 μg/mL) was 45.83%*, the “A570 nm-A630 nm” value ([1]; 40 μg/mL, MTT) was 0.7160 ± 0.07829 and the Inhibition rate ([1]; 60 μg/mL) was 54.72%**. The “A570 nm-A630 nm” value ([1]; 60 μg/mL, MTT) was 0.5985 ± 0.07472, the “inhibition rate of HRCEC proliferation” value ([1]; 80 μg/mL, MTT) was 65.13% and the Inhibition rate ([1]; 80 μg/mL) was 65.13%*. For the same substance, the “A570 nm-A630 nm” value ([1]; 80 μg/mL, MTT) was 0.4609 ± 0.07165, the “rate of growth inhibition” value [2] was 54.82 ± 17.10% and the “inhibition rate of corneal neovascularization” value ([3]; BALB/c mice, alkali burn, intravitreal injection once a day for 1 week) was 50.07%. The Inhibition rate [3] was 50.07%, the MVD [3] was 33.32 ± 3.871** and the Swelling [4, 6] was 0.24 ± 0.12. For the same substance, the Swelling [4, 7] was 0.37 ± 0.16, the Swelling [4, 8] was 0.42 ± 0.16 and the Swelling [4, 9] was 0.30 ± 0.12. It also gave a Swelling [4, 10] of 0.21 ± 0.10, a Swelling [4, 11] of 0.31 ± 0.17 and a Swelling [4, 12] of 0.35 ± 0.11. The Swelling [4, 13] was 0.33 ± 0.15, the “inhibition of carrageenan-induced toe swelling (in words)” value ([4]; rats, 40 mg/kg, once a day for 3 days) was “most effective” and the “rate of growth inhibition” value [5] was 43.78 ± 10.16%.

In the case of “mPEG2-NHS20k-Arg-Gly-Ala-Asp-Arg-Ala-Gly-Gly-Gly-Gly-Arg-Gly-Asp ({mPEG2‑NHS 20 kDa}-RGADRAGGGGRGD) [mPEG2-NHS20k-HM-1]”, the Inhibition rate ([1]; 60 μg/mL) is reported as 44.01%*, the “A570 nm-A630 nm” value ([1]; 60 μg/mL, MTT) is reported as 0.7401 ± 0.07482 and the Inhibition rate ([1]; 80 μg/mL) is reported as 54.18%**. The “A570 nm-A630 nm” value ([1]; 80 μg/mL, MTT) was 0.6056 ± 0.07003, the Inhibition rate ([1]; 100 μg/mL) was 64.62%* and the “A570 nm-A630 nm” value ([1]; 100 μg/mL, MTT) was 0.4677 ± 0.07601. The “rate of growth inhibition” value [2] was 60.63 ± 19.39%, the Inhibition rate [3] was 42.37% and the MVD [3] was 38.46 ± 4.528**. It also gave a Swelling [4, 10] of 0.26 ± 0.15, a Swelling [4, 11] of 0.34 ± 0.14 and a Swelling [4, 12] of 0.43 ± 0.17. The Swelling [4, 13] was 0.36 ± 0.12, the Swelling ([4]; 80 mg/kg once a day for 3 days, 1 h after carrageenan) was 0.25 ± 0.11 and the Swelling ([4]; 80 mg/kg once a day for 3 days, 3 h after carrageenan) was 0.32 ± 0.13. The Swelling ([4]; 80 mg/kg once a day for 3 days, 5 h after carrageenan) was 0.41 ± 0.11, the Swelling ([4]; 80 mg/kg once a day for 3 days, 7 h after carrageenan) was 0.34 ± 0.14 and the “rate of growth inhibition” value [5] was 49.79 ± 12.73%.

With “mPEG-bALD5k-Arg-Gly-Ala-Asp-Arg-Ala-Gly-Gly-Gly-Gly-Arg-Gly-Asp ({mPEG‑bALD 5 kDa}-RGADRAGGGGRGD) [mPEG-bALD5k-HM-1]” the Inhibition rate ([1]; 20 μg/mL) was 41.82%*, the “A570 nm-A630 nm” value ([1]; 20 μg/mL, MTT) was 0.7747 ± 0.08752 and the Inhibition rate ([1]; 40 μg/mL) was 50.48%**. The “A570 nm-A630 nm” value ([1]; 40 μg/mL, MTT) was 0.6594 ± 0.08003, the Inhibition rate ([1]; 60 μg/mL) was 62.77%* and the “A570 nm-A630 nm” value ([1]; 60 μg/mL, MTT) was 04958 ± 0.07902. For the same substance, the “rate of growth inhibition” value [2] was 64.52 ± 16.88%, the Inhibition rate [3] was 43.10% and the MVD [3] was 37.97 ± 3.914*. The “rate of growth inhibition” value [5] was 36.03 ± 10.12%.

“mPEG-bALD40k-Arg-Gly-Ala-Asp-Arg-Ala-Gly-Gly-Gly-Gly-Arg-Gly-Asp ({mPEG‑bALD 40 kDa}-RGADRAGGGGRGD) [mPEG-bALD40k-HM-1]” was tested, and the Inhibition rate ([1]; 80 μg/mL) was 44.81%*, the “A570 nm-A630 nm” value ([1]; 80 μg/mL, MTT) was 0.7349 ± 0.07082 and the Inhibition rate ([1]; 100 μg/mL) was 55.03%**. The “A570 nm-A630 nm” value ([1]; 100 μg/mL, MTT) was 0.5988 ± 0.07291, the Inhibition rate ([1]; 120 μg/mL) was 63.12%* and the “A570 nm-A630 nm” value ([1]; 120 μg/mL, MTT) was 0.4911 ± 0.07534. For the same substance, the “rate of growth inhibition” value [2] was 70.34 ± 19.04%, the Inhibition rate [3] was 45.27% and the MVD [3] was 36.52 ± 6.537**. For the same substance, the “rate of growth inhibition” value [5] was 43.82 ± 10.31%.
